Values of other authors in patent US20080003608A1, “Highly Specific Polyclonal Antibodies of Individual Core Histone and Uses Thereof” (priority 2004, published 2008).

Biological target: T1, p300 (Homo sapiens, UniProt Q09472)
T1 construct: lane 3 curcumin (75 μM) treated cells, lane 4, curcumin (100 μM) treated cells; endogenous in cells
Conditions: reference (2)

T1 sequence (Q09472 whole entry, species assumed): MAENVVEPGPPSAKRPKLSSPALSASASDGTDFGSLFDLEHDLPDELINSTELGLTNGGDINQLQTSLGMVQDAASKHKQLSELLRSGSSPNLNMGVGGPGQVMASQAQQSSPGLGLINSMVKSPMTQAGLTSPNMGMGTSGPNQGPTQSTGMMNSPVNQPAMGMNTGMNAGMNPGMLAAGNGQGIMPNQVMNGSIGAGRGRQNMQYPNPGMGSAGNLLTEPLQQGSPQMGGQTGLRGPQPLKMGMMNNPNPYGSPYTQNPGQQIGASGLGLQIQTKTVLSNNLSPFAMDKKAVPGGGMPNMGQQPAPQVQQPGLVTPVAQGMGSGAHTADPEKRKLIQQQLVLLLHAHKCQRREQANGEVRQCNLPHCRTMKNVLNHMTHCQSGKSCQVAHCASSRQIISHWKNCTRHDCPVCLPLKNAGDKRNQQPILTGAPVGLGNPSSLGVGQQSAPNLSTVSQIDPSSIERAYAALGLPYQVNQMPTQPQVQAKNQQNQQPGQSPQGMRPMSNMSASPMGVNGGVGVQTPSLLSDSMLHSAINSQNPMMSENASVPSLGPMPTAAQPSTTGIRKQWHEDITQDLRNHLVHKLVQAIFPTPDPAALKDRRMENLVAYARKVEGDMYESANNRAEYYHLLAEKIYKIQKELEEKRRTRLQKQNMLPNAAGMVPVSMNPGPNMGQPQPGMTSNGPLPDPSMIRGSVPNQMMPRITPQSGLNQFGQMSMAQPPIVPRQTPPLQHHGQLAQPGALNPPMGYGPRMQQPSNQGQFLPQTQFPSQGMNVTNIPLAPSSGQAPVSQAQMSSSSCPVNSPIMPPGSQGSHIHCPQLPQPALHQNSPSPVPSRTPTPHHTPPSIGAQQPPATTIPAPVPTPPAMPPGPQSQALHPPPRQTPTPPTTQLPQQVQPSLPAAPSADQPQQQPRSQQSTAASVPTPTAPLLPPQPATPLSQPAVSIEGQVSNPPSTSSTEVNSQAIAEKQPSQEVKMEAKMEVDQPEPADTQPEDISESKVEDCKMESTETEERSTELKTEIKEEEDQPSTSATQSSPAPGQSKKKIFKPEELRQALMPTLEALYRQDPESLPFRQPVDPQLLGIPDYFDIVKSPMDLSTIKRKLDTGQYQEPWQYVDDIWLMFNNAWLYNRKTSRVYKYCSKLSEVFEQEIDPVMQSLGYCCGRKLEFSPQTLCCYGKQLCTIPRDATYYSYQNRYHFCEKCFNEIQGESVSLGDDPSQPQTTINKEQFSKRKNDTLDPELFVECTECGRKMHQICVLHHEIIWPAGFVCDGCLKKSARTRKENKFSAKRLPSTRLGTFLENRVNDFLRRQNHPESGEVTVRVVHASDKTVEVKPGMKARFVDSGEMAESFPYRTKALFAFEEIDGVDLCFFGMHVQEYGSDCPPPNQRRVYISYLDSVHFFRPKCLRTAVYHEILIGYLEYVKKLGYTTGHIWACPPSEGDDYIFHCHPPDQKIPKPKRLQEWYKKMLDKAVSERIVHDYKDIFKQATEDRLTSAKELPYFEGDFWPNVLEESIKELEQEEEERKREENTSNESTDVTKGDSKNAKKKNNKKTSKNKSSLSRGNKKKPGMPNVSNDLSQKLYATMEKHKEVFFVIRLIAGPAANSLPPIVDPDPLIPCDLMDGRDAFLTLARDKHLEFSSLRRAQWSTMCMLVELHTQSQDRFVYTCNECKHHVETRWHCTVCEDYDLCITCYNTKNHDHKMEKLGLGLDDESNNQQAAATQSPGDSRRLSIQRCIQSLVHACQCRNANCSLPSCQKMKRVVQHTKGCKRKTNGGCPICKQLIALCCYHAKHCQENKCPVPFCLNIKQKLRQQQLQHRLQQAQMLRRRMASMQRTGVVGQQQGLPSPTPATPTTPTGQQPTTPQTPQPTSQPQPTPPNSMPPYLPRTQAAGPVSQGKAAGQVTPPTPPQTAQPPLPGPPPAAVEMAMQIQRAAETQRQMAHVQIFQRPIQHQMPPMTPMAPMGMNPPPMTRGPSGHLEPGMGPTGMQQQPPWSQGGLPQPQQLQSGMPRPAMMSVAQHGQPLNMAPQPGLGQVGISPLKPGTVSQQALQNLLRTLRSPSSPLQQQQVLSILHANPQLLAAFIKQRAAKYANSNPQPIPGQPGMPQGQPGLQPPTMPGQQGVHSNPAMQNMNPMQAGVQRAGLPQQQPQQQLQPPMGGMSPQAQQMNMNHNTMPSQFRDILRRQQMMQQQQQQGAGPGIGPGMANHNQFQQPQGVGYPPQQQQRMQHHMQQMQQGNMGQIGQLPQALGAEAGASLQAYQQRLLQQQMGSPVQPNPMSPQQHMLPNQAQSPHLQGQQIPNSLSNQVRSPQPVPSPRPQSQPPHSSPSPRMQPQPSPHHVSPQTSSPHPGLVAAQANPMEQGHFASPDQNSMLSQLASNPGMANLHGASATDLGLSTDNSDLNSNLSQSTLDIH

- HAT inhibition: potent p300-specific HAT inhibitor
SMILES: COc1cc(/C=C/C(=O)CC(=O)/C=C/c2ccc(O)c(OC)c2)ccc1O [Curcumin]
